Where a name gives a salt, the structure may show the parent alone.
Experiments:
[1] = tested on: platelet aggregation; assay: Antithrombotic activity: inhibition of collagen-induced platelet aggregation (Born and Cross method); type: cell-based; settings: Homo sapiens, 10 min, platelet-rich plasma from healthy volunteers, 10 minutes incubation at 37° C.
Description: 2. Antithrombotic activity Method The thrombocyte aggregation is measured using the Born and Cross method (J. Physiol. 170:397 (1964)) in platelet-rich plasma taken from healthy volunteers. To inhibit coagulation the blood is mixed with 3.14% sodium citrate in a volume ratio of 1:10. Collagen-induced aggregation The pattern of the decrease in optical density of the platelet suspension is photometrically measured and recorded after the addition of the aggregation-triggering substance. The rate of aggregation is determined from the angle of inclination of the density curve. The point on the curve where there is maximum light transmittance is used to calculate the optical density. The amount of collagen used is as small as possible but sufficient to produce an irreversible reaction curve. Standard commercial collagen produced by Hormonchemie of Munich is used. Before the addition of the collagen the plasma is incubated for 10 minutes with the substance at 37° C. From the measurements obtained an EC50 is determined graphically, indicating a 50% change in the optical density in terms of the inhibition of aggregation. The Table which follows contains the results found: […]

[2] = molecular target: human thrombocytes; assay: Inhibition of binding of ^3 H-BIBU 52 to human thrombocytes (Fibrinogen-binding test); settings: ^3 H-BIBU 52 5 nM, human platelet-rich plasma 1:10 diluted, ambient temperature, 20 minutes
Description: 1. Inhibition of binding of ^3 H-BIBU 52 to human thrombocytes: […] Case 5/1093-FL) and various concentrations of the substance to be tested. The free and bound ligand is separated by centrifuging and quantitatively determined by scintillation counting. The inhibition of ^3 H-BIBU 52 binding by the test substance is determined from the measurements obtained. In order to do this, donor blood is taken from an anticubital vein and anticoagulated with trisodium citrate (final concentration 13 mM). The blood is centrifuged for 10 minutes at 170 x g and the supernatant platelet-rich plasma (PRP) is removed. The remaining blood is sharply centrifuged once more in order to obtain plasma. The PRP is diluted 1:10 with autologous plasma. 750 μl are incubated with 50 μl of physiological saline solution, 100 μl of test substance solution, 50 μl of ^14 C-sucrose (3,700 Bq) and 50 μl of ^3 H-BIBU 52 (final concentration: 5 nM) at ambient temperature for 20 minutes. In order to measure the non-specific binding, 5 μl of BIBU 52 (final concentration: 30 μM) are used instead of the test substance. The samples are centrifuged for 20 seconds at 10,000 x g and the supernatant is poured off. 100 μl thereof are measured in order to determine the free ligand. The pellet is dissolved in 500 μl of 0.2N NaOH, 450 μl are mixed with 2 ml of scintillator and 25 μl of 5N HCl and measured. The residual plasma remaining in the pellet is determined from the ^14 C-content and the bound ligand is determined from the ^3 H-measurement. After the non-specific binding has been deducted, the pellet activity is plotted against the concentration of the test substance and the concentration for a 50% inhibition of binding is determined.

[3] = tested on: mice; assay: Tolerability after intravenous administration to mice; type: in vivo; settings: intravenous administration of 15 mg/kg, 3 animals

Structure (SMILES)	IC50 [2] [nM]	EC50 [1] [nM]	deaths [3]
N=C(N)c1ccc(N2CC(N3CCOCC3)=C(c3ccc(CCC(=O)O)cc3)C2=O)cc1 [2(3), 1-(4-amidinophenyl)-3-[4-(2-carboxy-ethyl)-phenyl]-4-morpholino-3-pyrrolin-2-one-hydrochloride]	42	730	–
N=C(N)c1ccc(N2CCC(c3ccc(CCC(=O)O)cc3)C2=O)cc1 (stereo not shown) [2(13), 1-(4-amidinophenyl)-3-[4-(2-carboxy-ethyl)-phenyl]-pyrrolidin-2-one-hydrochloride]	110	260	–
COC1=C(c2ccc(CCC(=O)O)cc2)C(=O)N(c2ccc(CN)cc2)C1 [2(55), 1-(4-aminomethyl-phenyl)-3-[4-(2-carboxy-ethyl)phenyl]-4-methoxy-3-pyrrolin-2-one-hydrochloride]	180	330	–
COC1=C(c2ccc(CCC(=O)O)cc2)C(=O)N(c2ccc(C(=N)N)cc2)C1 [Example 2, -(4-Amidinophenyl)-3-[4-(2-carboxyethyl)-phenyl]-4-methoxy-3-pyrrolin-2one-hydrochloride]	11	40	none of the 3 animals tested died

Further lines, with some results ahead:

IC50 [2] [nM]	Structure (SMILES)	EC50 [1] [nM]	deaths [3]
8600	COC(=O)CCc1ccc(C2=C(OC)CN(c3ccc(CN)cc3)C2=O)cc1 [5(B), 1-(4-Aminomethyl-phenyl)-4-methoxy-3-[4-(2-methoxycarbonyl-ethyl)-phenyl]-3-pyrrolin-2-one]	380	–
360	CC1(c2ccc(CCC(=O)O)cc2)C(=O)CN(c2ccc(C(=N)N)cc2)C1=O (stereo not shown) [Example 13, 1-(4-Amidinophenyl)-3-[4-(2-carboxy-ethyl)-phenyl]-3-methyl-pyrrolidin-2,4-dione-hydrochloride]	500	–

— patent US5489693A, “Cyclic imino derivatives, pharmaceutical compositions containing these compounds and processes preparing them” (priority 1992, dated 1996)
